Key:
Assay type in all cases: in vivo
[1] = test system: Oryza sativa subsp. indica; experiment: Greenhouse herbicidal activity and crop safety comparison (Test Example 2)
Source text: (§1) Pre-emergence: Seeds of gramineous weeds (Echinochloa crusgalli, Echinochloa crusgalli var. zelayensis, Echinochloa phyllopogon, Eleusine indica, Digitaria sanguinalis, Leptochloa chinensis, Setaria viridis, Alopecurus japonicus Steud, Beckmannia syzigachne, Polypogon fugax, Alopecurus aequalis, Lolium multiflorum, Poa annua, Aegilops tataschii, Avena fatua, Alopecurus myosuroides, Bromus japonicus), broadleaf weeds (Eclipta prostrata, Amaranthus retroflexus, Rorippa indica, Myosoton aquaticum, Veronica didyma, Galium aparine, Solanum nigrum, Xanthium sibiricum, Conyza canadensis, Sesbania cannabina, Sagittaria trifolia), and Cyperus iria (Cyperus iria, Scirpus juncoides, Cyperus difformis, etc.) were sown in plastic pots (7 cm diameter) with nutrient soil and bottom holes. Crop seeds (including Oryza sativa subsp. indica, Oryza sativa subsp. japonica, Oryza sativa L. var. Glutinosa matsum, Triticum aestivum, Zea mays, Sorghum bicolor, Setaria italica, Glycine max, Gossypium hirsutum, Brassica napus, Arachis hypogaea) were sown in plastic pots (10 cm diameter) with nutrient soil and bottom holes. After sowing, the seeds were lightly covered with soil, and the soil was moistened via bottom water absorption. The pots were placed in a constant-temperature light-controlled growth chamber for 24 hours before soil spraying. Spraying was performed using a 3WP-2000 walking-type spray tower (produced by the Nanjing Agricultural Mechanization Institute, Ministry of Agriculture) with a spindle speed of 96 mm/r, spray height of 300 mm, effective spray width of 350 mm, spray area of 0.35 m^2, and nozzle flow rate of 390 mL/min.
(§2) After treatment, the test materials were air-dried naturally in the laboratory and then transferred to the growth chamber. Results were assessed 14-30 days later.
(§3) Post-emergence: Seeds of gramineous weeds (Echinochloa crusgalli, Echinochloa crusgalli var. zelayensis, Echinochloa phyllopogon, Eleusine indica, Digitaria sanguinalis, Leptochloa chinensis, Setaria viridis, Alopecurus japonicus Steud, Beckmannia syzigachne, Polypogon fugax, Alopecurus aequalis, Lolium multiflorum, Poa annua, Aegilops tataschii, Avena fatua, Alopecurus myosuroides, Bromus japonicus), broadleaf weeds (Eclipta prostrata, Amaranthus retroflexus, Rorippa indica, Myosoton aquaticum, Veronica didyma, Galium aparine, Solanum nigrum, Xanthium sibiricum, Conyza canadensis, Sesbania cannabina, Sagittaria trifolia), and Cyperus iria (Cyperus iria, Scirpus juncoides, Cyperus difformis, etc.) were sown in plastic pots (7 cm diameter) with nutrient soil and bottom holes. Crop seeds (including Oryza sativa subsp. indica, Oryza sativa subsp. japonica, Oryza sativa L. var. Glutinosa matsum, Triticum aestivum, Zea mays, Sorghum bicolor, Setaria italica, Glycine max, Gossypium hirsutum, Brassica napus, Arachis hypogaea) were sown in plastic pots (10 cm diameter) with nutrient soil and bottom holes. After sowing, the pots were placed in the growth chamber until the plants reached the 3-6 leaf stage for foliar spraying. Post-treatment, the materials were air-dried naturally and returned to the growth chamber. Results were assessed 14-21 days later.
(§4) • A: Fresh weight inhibition rate≥80% to 100%; • B: Fresh weight inhibition rate[…] to <80%; • C: Fresh weight inhibition rate≥40% to <60%; • D: Fresh weight inhibition rate≥20% to <40%; • E: Fresh weight inhibition rate<20%; • NT: Not tested.
(§5) Using the above method, the herbicidal activity and crop safety of the present compounds were compared with structurally similar known compounds (CK1, CK2, CK3, CK4: compounds 4-756, 4-759, 1-557, 1-563 from WO2012028579A1; CK5: compound 290-1 from WO2013087577A1; CK6: compound 1-129 from WO2011035874A1).

[2] = test system: Oryza sativa subsp. japonica; experiment: as above
Source text: as §1, §2, §3, §4, §5

[3] = test system: Echinochloa crusgalli; experiment: as above
Source text: as §1, §2, §3, §4, §5

[4] = test system: Eclipta prostrata; experiment: Greenhouse herbicidal activity assay, post-emergence; details: Post-emergence test, rate 150 g a.i./hm^2; grade by fresh weight inhibition rate
In short: (§6)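 Weeds were sown in nutrient soil in 7 cm pots and grown in a growth chamber to the 3-6 leaf stage, then foliar-sprayed, air-dried and returned to the chamber. Fresh weight inhibition was scored 14-21 days later in bands from A (≥80% to 100%) to E (<20%).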

[5] = test system: Cyperus iria; experiment: as above; details: Post-emergence test, rate 150 g a.i./hm^2; grade by fresh weight inhibition rate
In short: as §6

[6] = test system: Echinochloa crusgalli; experiment: as above; details: Post-emergence test, rate 150 g a.i./hm^2, grade by fresh weight inhibition rate
In short: as §6

[7] = test system: Leptochloa chinensis; experiment: as above; details: Post-emergence test, rate 150 g a.i./hm^2; grade by fresh weight inhibition rate
In short: as §6

[8] = Echinochloa crus-galli, Rate 150 g/ha, read-out: Echinochloa crusgalli, control efficacy grading (fresh weight inhibition rate)
[9] = Echinochloa crus-galli, Rate 75 g/ha, read-out: Echinochloa crusgalli, control efficacy grading (fresh weight inhibition rate)

Compound	Oryza sativa subsp. indica, grading of fresh weight inhibition rate (crop safety) ([1]; Rate 150 g/ha)	Oryza sativa subsp. japonica, grading of fresh weight inhibition rate (crop safety) ([2]; Rate 150 g/ha)	Echinochloa crusgalli, control efficacy grading (fresh weight inhibition rate) ([3]; Rate 150 g/ha)	Control efficacy grade, Eclipta prostrata [4]	Control efficacy grade, Cyperus iria [5]	Control efficacy grade, Echinochloa crusgalli [6]	Control efficacy grade, Leptochloa chinensis [7]	Oryza sativa subsp. indica, grading of fresh weight inhibition rate (crop safety) ([1]; Rate 75 g/ha)	Oryza sativa subsp. japonica, grading of fresh weight inhibition rate (crop safety) ([2]; Rate 75 g/ha)	Echinochloa crusgalli, control efficacy grading (fresh weight inhibition rate) ([3]; Rate 75 g/ha)	inhibition at 150 g/ha [3, 8] [%]	inhibition at 75 g/ha [3, 9] [%]	pest or weed control at 150 g/ha ([6]; Echinochloa crus-galli, read-out: Control efficacy grade, Echinochloa crusgalli) [%]	Oryza sativa subsp. indica, grading of fresh weight inhibition rate (crop safety) ([1]; Rate 18.75 g/ha)	Oryza sativa subsp. japonica, grading of fresh weight inhibition rate (crop safety) ([2]; Rate 18.75 g/ha)	inhibition at 18.75 g/ha ([3]; Echinochloa crus-galli, Rate 18.75 g/ha, read-out: Echinochloa crusgalli, control efficacy grading (fresh weight inhibition rate)) [%]
Cn1nnnc1NC(=O)c1ccc(S(C)(=O)=O)c(S(=O)(=O)C2CCC2)c1Cl [Compound 1-41]	E (Fresh weight inhibition rate<20%)	E (Fresh weight inhibition rate<20%)	A (Fresh weight inhibition rate≥80% to 100%)	A (Fresh weight inhibition rate≥80% to 100%)	A (Fresh weight inhibition rate≥80% to 100%)	A (Fresh weight inhibition rate≥80% to 100%)	A (Fresh weight inhibition rate≥80% to 100%)									
CCC[S+]([O-])c1c(S(C)(=O)=O)ccc(C(=O)N(C)c2nnc(CC)o2)c1Cl (racemic) [Compound 3-798]	E (Fresh weight inhibition rate<20%)	E (Fresh weight inhibition rate<20%)	A (Fresh weight inhibition rate≥80% to 100%)			A (Fresh weight inhibition rate≥80% to 100%)										
CCC[S+]([O-])c1c(S(C)(=O)=O)ccc(C(=O)N(C)c2nnc(C)o2)c1Cl (single isomer, unassigned) [Compound 3-788]	E (Fresh weight inhibition rate<20%)	E (Fresh weight inhibition rate<20%)	A (Fresh weight inhibition rate≥80% to 100%)			A (Fresh weight inhibition rate≥80% to 100%)	A (Fresh weight inhibition rate≥80% to 100%)	E (Fresh weight inhibition rate<20%)	E (Fresh weight inhibition rate<20%)	A (Fresh weight inhibition rate≥80% to 100%)						
CCn1nnnc1NC(=O)c1ccc(S(C)(=O)=O)c(S(=O)(=O)C(C)C)c1Cl [Compound 1-96, 2-chloro-N-(1-ethyl-1H-tetrazol-5-yl)-3-(isopropylsulfonyl)-4-(methylsulfonyl)benzamide]	E (Fresh weight inhibition rate<20%)	E (Fresh weight inhibition rate<20%)									80 to 100					
CCC[S+]([O-])c1c(S(C)(=O)=O)ccc(C(=O)N(C)c2nnc(C)o2)c1Cl (racemic) [Compound 3-787, 2-chloro-N-methyl-N-(5-methyl-1,3,4-oxadiazol-2-yl)-4-(methylsulfonyl)-3-(propylsulfinyl)benzamide]	E (Fresh weight inhibition rate<20%)	E (Fresh weight inhibition rate<20%)						E (Fresh weight inhibition rate<20%)	E (Fresh weight inhibition rate<20%)		80 to 100	80 to 100	80 to 100			
CCC[S+]([O-])c1c(S(C)(=O)=O)ccc(C(=O)N(C)c2nnc(C(C)C)o2)c1Cl (racemic) [Compound 3-801]	E (Fresh weight inhibition rate<20%)	E (Fresh weight inhibition rate<20%)	A (Fresh weight inhibition rate≥80% to 100%)													
CCS(=O)(=O)c1c(S(C)(=O)=O)ccc(C(=O)Nc2nnnn2C)c1Cl [CK2, reference compound]	B (Fresh weight inhibition rate≥260% to <80%)	B (Fresh weight inhibition rate≥260% to <80%)						C (Fresh weight inhibition rate≥40% to <60%)	C (Fresh weight inhibition rate≥40% to <60%)		80 to 100	80 to 100		C (Fresh weight inhibition rate≥40% to <60%)	C (Fresh weight inhibition rate≥40% to <60%)	
Cn1nnnc1NC(=O)c1ccc(S(C)(=O)=O)c(S(=O)(=O)C2CCCC2)c1Cl [Compound 1-46]	E (Fresh weight inhibition rate<20%)	E (Fresh weight inhibition rate<20%)	A (Fresh weight inhibition rate≥80% to 100%)	A (Fresh weight inhibition rate≥80% to 100%)	A (Fresh weight inhibition rate≥80% to 100%)	A (Fresh weight inhibition rate≥80% to 100%)										
CCC[S+]([O-])c1c(S(C)(=O)=O)ccc(C(=O)N(C)c2nnco2)c1Cl (racemic) [Compound 3-795]	E (Fresh weight inhibition rate<20%)	E (Fresh weight inhibition rate<20%)	A (Fresh weight inhibition rate≥80% to 100%)			A (Fresh weight inhibition rate≥80% to 100%)										
Cc1nnc(N(C)C(=O)c2ccc(S(C)(=O)=O)c([S+](C)[O-])c2Cl)o1 (centres unmarked) [CK5, reference compound]	D (Fresh weight inhibition rate≥20% to <40%)	E (Fresh weight inhibition rate<20%)						E (Fresh weight inhibition rate<20%)	E (Fresh weight inhibition rate<20%)		20 to 40	< 20		E (Fresh weight inhibition rate<20%)	E (Fresh weight inhibition rate<20%)	< 20
CCCS(=O)(=O)c1c(S(C)(=O)=O)ccc(C(=O)Nc2nnnn2CC)c1Cl [Compound 1-91]	E (Fresh weight inhibition rate<20%)	E (Fresh weight inhibition rate<20%)	A (Fresh weight inhibition rate≥80% to 100%)													

— US20250223268A1, “4-Methylsulfonylbenzamide Compound, Preparation Method, Herbicidal Composition And Use” (Jiangsu Flag Chemical Industry Co., Ltd., priority 2022, published 2025)
